Publication PMC7155171, “Probing the Open Global Health Chemical Diversity Library for Multistage-Active Starting Points for Next-Generation Antimalarials” (ACS Infectious Diseases, 2020)
pIC50: −log10 of the molar value. Where two headings read alike, the source gives them in different places.

Legend:
Format in all cases: cell-based, Plasmodium falciparum
[1] = test system: P. falciparum Dd2 (PfLuc) line expressing firefly luciferase, asexual blood stage; assay: microbe, parasite or virus in culture; details: Plasmodium falciparum; for IC50: DD2, read-out: CDD P. falciparum Luciferase ABS 11-pt Reconfirmation Dose Response (48hr): IC50 (μM)
[2] = test system: P. falciparum (NF54) stage V gametocytes; assay: Stage V gametocyte viability assay (MitoTracker Red CMXRos high content imaging); details: for inhibition at 2 µM: read-out: Stg V Gam primary screen: Inhibition % (2uM) (n=2)
P. falciparum Dd2 = assay: SYBR green I asexual blood stage proliferation assay (96 h); details: Plasmodium falciparum, DD2, 11-pt dose response, 96hr
[3] = DD2, 8-pt dose response, 96hr, read-out: CDD P. falciparum Luciferase ABS 8-pt Reconfirmation Dose Response (96hr): IC50
[4] = DD2, 8-pt dose response, 96hr, read-out: CDD P. falciparum Luciferase ABS 8-pt Reconfirmation Dose Response (96hr): Maximum inhibition (%)
[5] = DD2, 11-pt dose response, 96hr, read-out: CDD P. falciparum Luciferase ABS 11-pt Reconfirmation Dose Response (96hr): IC50
[6] = DD2, 11-pt dose response, 96hr, read-out: CDD P. falciparum Luciferase ABS 11-pt Reconfirmation Dose Response (96hr): Maximum inhibition (%)
[7] = Plasmodium falciparum, NF54, 72 h, read-out: Stg V Gam dose response IC50 (µM) (n=3), 10-point dose response, n=3, 72 h
[8] = Sybr Green I, read-out: CDD P. falciparum Sybr Green I ABS 11-pt Reconfirmation Dose Response (96hr): IC50
[9] = Sybr Green I, read-out: CDD P. falciparum Sybr Green I ABS 11-pt Reconfirmation Dose Response (96hr): Maximum inhibition (%)
[10] = DD2, 11-pt dose response, 48hr, read-out: CDD P. falciparum Luciferase ABS 11-pt Reconfirmation Dose Response (48hr): Maximum inhibition (%)
[11] = Plasmodium falciparum, NF54, 72 h
[12] = DD2, read-out: P. falciparum Luciferase ABS 11-pt Reconfirmation Dose Response (48hr): IC50, 11-pt dose response, 48hr
[13] = DD2, 8-pt dose response, 96hr, read-out: P. falciparum Luciferase ABS 8-pt Reconfirmation Dose Response (96hr): IC50
[14] = DD2, 11-pt dose response, 48hr, read-out: P. falciparum Luciferase ABS 11-pt Reconfirmation Dose Response (48hr): Maximum inhibition (%)
[15] = DD2, 11-pt dose response, 96hr, read-out: P. falciparum Luciferase ABS 11-pt Reconfirmation Dose Response (96hr): IC50
[16] = DD2, 11-pt dose response, 96hr, read-out: P. falciparum Luciferase ABS 11-pt Reconfirmation Dose Response (96hr): Maximum inhibition (%)
[17] = Plasmodium falciparum, NF54, 72 h, read-out: GAM V IC50, stage V gametocytes, 72 h
[18] = read-out: P. falciparum Sybr Green I ABS 11-pt Reconfirmation Dose Response (96hr): IC50
[19] = read-out: P. falciparum Sybr Green I ABS 11-pt Reconfirmation Dose Response (96hr): Maximum inhibition (%)

Row | Structure (SMILES) | IC50 ([1]; 11-pt dose response, 48hr) | pIC50 [1, 3] | Emax [1, 4] | pIC50 [1, 5] | Emax [1, 6] | IC50 [2, 7] | pIC50 (P. falciparum Dd2; [8]) | Emax (P. falciparum Dd2; [9]) | Emax [1, 10] | inhibition at 2 µM [2, 11] | pIC50 [2, 17] | further results
1 | NC(=O)c1cccc2nc([C@H]3CCN(Cc4ccccn4)C3)[nH]c12 [DDD01025389, NC(=O)C1=C2NC(=NC2=CC=C1)[C@H]1CCN(CC2=CC=CC=N2)C1] | 0.058 µM | 7.47 | 98.4% | 8.00 | 101% | 0.125 µM | 7.09 | 86.6% | – | – | – | –
2 | COc1ccc(NC(=O)Cn2nc(C)c(C(C)=O)c2C)cc1 [DDD01027600, COC1=CC=C(NC(=O)CN2N=C(C)C(C(C)=O)=C2C)C=C1] | 1.9 µM | 6.31 | 92.8% | 5.84 | 92.8% | 3.74 µM | 5.34 | – | 87% | 53.5% | – | –
3 | COc1ccc(-c2c(C)nn3c(=N)c(C#N)n[nH]c23)cc1OC [DDD01035187, COC1=CC=C(C=C1OC)C1=C2N=NC(C#N)=C(N)N2N=C1C] | 1.18 µM | 6.24 | 93% | 6.08 | 98.5% | 8.2 µM | 5.22 | 90.8% | 95.8% | 61.6% | – | –
4 | Cc1nn(C)cc1C1=NS(=O)(=O)N(C)C(C(=O)Nc2ccc(Br)cc2)=C1 [DDD01058697, CN1C=C(C(C)=N1)C1=NS(=O)(=O)N(C)C(=C1)C(=O)NC1=CC=C(Br)C=C1] | 0.55 µM | 6.70 | 95.2% | 6.55 | 101% | – | 6.49 | 99.9% | 99.4% | – | – | IC50 ([2]; Plasmodium falciparum, NF54, read-out: Stg V Gam dose response IC50 (µM) (n=3), 10-point dose response, n=3, 72 h): 2.78 µM; inhibition at 2 µM ([2]; Plasmodium falciparum, NF54, Table S6, 2uM, n=2, 72 h): 53.2%
5 | COc1ccc(C)cc1CN1CCC(c2cc3ncccc3cn2)CC1 [DDD01058767, COC1=CC=C(C)C=C1CN1CCC(CC1)C1=NC=C2C=CC=NC2=C1] | 0.0507 µM | 6.60 | 96.3% | 7.36 | 100% | 2.51 µM | 6.87 | 101% | 98.5% | 85.5% | – | –
6 | CC(C)(C)c1cn2c(n1)C(CNCc1ccccn1)CCC2 (stereo not drawn) [DDD01062588, CC(C)(C)C1=CN2CCCC(CNCC3=CC=CC=N3)C2=N1] | – | – | – | – | – | 0.069 µM | – | – | – | 86.8% | 7.15 | pIC50 [1, 12]: 5.54; pIC50 [1, 13]: 5.84; Emax ([1]; DD2, 8-pt dose response, 96hr, read-out: P. falciparum Luciferase ABS 8-pt Reconfirmation Dose Response (96hr): Maximum inhibition (%)): 91.5%; Emax [1, 14]: 90.4%; pIC50 [1, 15]: 5.85; Emax [1, 16]: 98.6%; pIC50 (P. falciparum Dd2; [18]): 5.76; Emax (P. falciparum Dd2; [19]): 87.3%
7 | Fc1cccc(C(NCc2ncc[nH]2)c2ccccn2)c1 (stereo not drawn) [DDD01064153, FC1=CC=CC(=C1)C(NCC1=NC=CN1)C1=CC=CC=N1] | 5.61 µM | 6.35 | – | 6.19 | 97.4% | 1.55 µM | 5.25 | 82.6% | 86.1% | 63.2% | 5.81 | –
8 | Clc1cccc(C(NCc2ncc[nH]2)c2ccccn2)c1 (stereo not drawn) [DDD01064155, ClC1=CC=CC(=C1)C(NCC1=NC=CN1)C1=CC=CC=N1] | 1.99 µM | 6.57 | 94.2% | 6.39 | 98.7% | 2.06 µM | 5.43 | 88.1% | 94.1% | 59.1% | 5.69 | –
9 | CNc1cc(C)nc(NC2CCCN(C3Cc4ccccc4C3)C2)n1 (stereo not drawn) [DDD01243506, CNC1=CC(C)=NC(NC2CCCN(C2)C2CC3=CC=CC=C3C2)=N1] | – | – | – | – | – | 2.91 µM | – | – | – | 62.9% | – | pIC50 [1, 12]: 5.94; pIC50 [1, 13]: 5.88; Emax [1, 14]: 94.3%; pIC50 [1, 15]: 6.15; Emax [1, 16]: 100%; pIC50 (P. falciparum Dd2; [18]): 6.02; Emax (P. falciparum Dd2; [19]): 96.1%
10 | CN(Cc1ccsc1)c1nc(-c2ccccn2)nc2c1CCNCC2 [DDD01243664, CN(CC1=CSC=C1)C1=NC(=NC2=C1CCNCC2)C1=CC=CC=N1] | 0.752 µM | 6.28 | 95.1% | 6.52 | 98.7% | 0.732 µM | 6.06 | 78.7% | 89.8% | 95.1% | 6.14 | pIC50 ([1]; DD2, asexual blood stage, assay format not given, read-out: ABS IC50): > 6.00; pIC50 ([2]; read-out: GAM V IC50, stage V gametocytes, 72 h): > 6.00
11 | CN(CCO)Cc1cc(Cl)ccc1OCC(O)CN1CCCCCC1 (stereo not drawn) [DDD01243745, CN(CCO)CC1=CC(Cl)=CC=C1OCC(O)CN1CCCCCC1] | 2.92 µM | 6.02 | 93.5% | 5.84 | 98.8% | 5.69 µM | 5.96 | 99.1% | 97% | 54.7% | – | –
12 | OC1(CN2CCC(Oc3cccc(C(F)(F)F)c3)CC2)CCNC1 (stereo not drawn) [DDD01245291, OC1(CN2CCC(CC2)OC2=CC=CC(=C2)C(F)(F)F)CCNC1] | 2.08 µM | 6.06 | 93.8% | 6.02 | 99.5% | 2.42 µM | 5.71 | 96.4% | 95.9% | 50.1% | – | –
13 | CCc1ccc2nc(NCCCN(CCO)CCO)cc(C)c2c1 [DDD01247914, CCC1=CC=C2N=C(NCCCN(CCO)CCO)C=C(C)C2=C1] | 3.94 µM | 5.97 | 91.1% | 5.77 | 99.8% | 3.72 µM | 5.44 | 94% | 92.3% | 59.7% | – | –
14 | Cc1cc(CN(C)c2nc(-c3ccccn3)nc3c2CCNCC3)n[nH]1 [DDD01255965, CN(CC1=CC(C)=NN1)C1=NC(=NC2=C1CCNCC2)C1=CC=CC=N1] | – | – | – | – | – | 0.875 µM | – | – | – | 61.9% | 6.06 | pIC50 ([1]; 96 h incubation, Dd2 luciferase, read-out: 96 hour Pfluc IC50): < 5.00
